Experiments:
carboxypeptidase B = target: T1, carboxypeptidase B (Homo sapiens, UniProt P15086); assay: Splitting of thiaarginine and thialysine substrates by carboxypeptidase B; assay type: biochemical; details: substrate final concentration 174 μM
T1 sequence (P15086 111-417): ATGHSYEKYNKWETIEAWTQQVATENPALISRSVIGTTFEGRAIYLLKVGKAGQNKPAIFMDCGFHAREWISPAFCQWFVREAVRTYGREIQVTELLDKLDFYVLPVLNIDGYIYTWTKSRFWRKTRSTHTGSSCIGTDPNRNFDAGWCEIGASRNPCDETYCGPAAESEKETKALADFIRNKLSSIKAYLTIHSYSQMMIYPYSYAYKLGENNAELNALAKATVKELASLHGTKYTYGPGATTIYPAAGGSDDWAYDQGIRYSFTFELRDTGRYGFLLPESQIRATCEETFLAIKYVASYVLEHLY
Protocol: The thiaarginine derivatives of the following formulas A and B [drawing 2] have been described as substrates for carboxypeptidase B (Bull. Korean. Chem. Soc. 1998, 19(2), 189-193). […] Detection of CPB by means of compound A is carried out according to the following FIG. 1. [drawing]
(§1) • measure for 10 min at RT Results: • Splitting of thiaarginine and thialysine substrates (final concentration 174 μM) by TAFIa (final concentration 17 μg/ml) • in brackets the value for carboxypeptidase B • Substances of comparison A and B from Bull. Korean. Chem. Soc. 1998, 19(2), 189-193
(§2) ΔE=Extinction variation at 405 nm

TAFIa = target: T2, TAFIa (Homo sapiens, UniProt Q96IY4); assay: Splitting of thiaarginine and thialysine substrates by TAFIa (DTNB chromogenic enzyme assay); assay type: biochemical; details: substrate final concentration 174 μM, TAFIa final concentration 17 μg/ml, RT, 10 min
T2 construct: purchased Enzyme Research Laboratory
T2 sequence (Q96IY4 115-423): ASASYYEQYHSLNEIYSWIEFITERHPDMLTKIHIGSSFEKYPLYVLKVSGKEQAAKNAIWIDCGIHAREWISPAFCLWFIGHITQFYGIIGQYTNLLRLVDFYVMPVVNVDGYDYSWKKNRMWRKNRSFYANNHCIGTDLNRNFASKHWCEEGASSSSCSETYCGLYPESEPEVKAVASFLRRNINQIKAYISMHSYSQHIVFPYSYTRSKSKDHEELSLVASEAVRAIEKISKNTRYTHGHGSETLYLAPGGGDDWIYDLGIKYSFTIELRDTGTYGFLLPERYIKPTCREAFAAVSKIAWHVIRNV
Text: In a first step, the substrate is hydrolyzed by TAFIa in such a way that a thioamino acid (thiaarginine or thialysine) is released. These instable intermediates are rapidly decomposed into 2-mercaptoethylguanidine or […], respectively. These mercapto compounds react with Ellman's reagent (5,5′-dithio-bis-(2-nitrobenzoic acid)), thereby releasing the strongly yellow 3-carboxy-4-nitrothiophenol that can be measured using a spectrophotometer at 405-412 nm. The free thiol content measured is directly proportional to the quantity of substrate hydrolyzed by TAFIa and thereby allows a quantitative analysis of the enzyme activity.
Enzyme assay: The enzyme activity is measured at room temperature by using a 10 mM substrate stock solution in DMSO. TAFI of human origin can be obtained in a stock solution of 360 μg/ml from Enzyme Research Laboratory or over blood plasma. Activation of TAFI to TAFIa occurred with thrombin (2.7 U/ml), the activation of which was produced with 30 μg of thrombomodulin. Excessive thrombin activity was eliminated by adding the synthetic inhibitor NAPAP. The measurement was performed on microtiter plates.
The absorption increase at 405-412 nm was recorded for 10 minutes.
in buffer (20 mM HEPES, 5 mM CaCl2, 0.01% Tween 80; pH 7.4) • incubate for 5 min at 25° C.
as §1, §2

Row | Compound | ΔE/min (extinction variation at 405 nm), value in brackets for carboxypeptidase B (carboxypeptidase B) | ΔE/min (extinction variation at 405 nm), splitting by TAFIa (TAFIa)
1 | Cl.NC(N)=NCCSC(NC(=O)[C@H](CCCCNC(=O)OCc1ccccc1)NC(=O)c1ccccc1)C(=O)O (stereo partly drawn) [No. 4269, benzoyl-(L)-lysyl-(E-benzyloxycarbonyl)-α-(D, L)-(2-guanidinoethylthio)-glycine hydrochloride salt] | (0.018) | 0.108
2 | Boc-F-K(Boc)-G(GUS)-OH × HCl [No. 4298] | (0.034) | 0.043
3 | Boc-K(Tos)-G(GUS)-OH × HCl [No. 4273] | (0.048) | 0.014
4 | Boc-K(Z)-G(GUS)-OH × TFA [No. 4275] | (0.028) | 0.041
5 | Bz-P-K(Boc)-G(GUS)-OH × TFA [No. 4300] | (0.072) | 0.012
6 | Z-A-K(Boc)-G(GUS)-OH × HCl [No. 4302] | (0.059) | 0.042

Results, then the compound that gave them:

Row | ΔE/min (extinction variation at 405 nm), value in brackets for carboxypeptidase B (carboxypeptidase B) | ΔE/min (extinction variation at 405 nm), splitting by TAFIa (TAFIa) | Compound
7 |  | 0.055 | NCCCSC(NC(=O)[C@H](CCCCNC(=O)OCc1ccccc1)NC(=O)c1ccccc1)C(=O)O.O=C(O)C(F)(F)F (stereo partly drawn) [No. 4339, benzoyl-(L)-lysyl-(F-benzyloxycarbonyl)-α-(D,L)-(3-aminopropylthio)-glycine trifluoracetic acid salt]
8 |  | 0.054 | Boc-K(Z)-G(α-SPrA)-OH × TFA [No. 4341]
9 |  | 0.034 | Bz-V-G(GUS)-OH × TFA [No. 4334]
10 |  | 0.053 | Bz-V-G(α-SPrA)-OH × TFA [No. 4336]
